One compound from patent publication US11857544B2, “Composition or method including (t)ew-7197 for treating or preventing corneal endothelial diseases” (THE DOSHISHA, priority 2017, dated 2024) can be followed below.

SMILES strings stand for the structures.

The subject of data set [1] is immortalized human corneal endothelial cells from a Fuchs' endothelial corneal dystrophy patient (iFECD). In words: Suppression of TGF-β-induced corneal endothelial cell disorder, observed under a phase contrast microscope. It is filed as cell-based. The settings on record: for effect of suppressing corneal endothelial cell disorder: Example 1, iFECD, 24 h pretreatment then 10 ng/ml TGF-β 24 h. As to the method: The medium was removed from a culture dish culturing immortalized human corneal endothelial cells from a Fuchs' endothelial corneal dystrophy patient (iFECD), and 1×PBS(-) preheated to 37° C. was added and washed. This was repeated twice. 1×PBS(-) was added again and the medium was incubated for 5 minutes at 37° C. (5% CO2). After removing the PBS(-), 0.05% Trypsin-EDTA (Nacalai Tesque, 32778-34) was added and incubated for 5 minutes at 37° C. (5% CO2). The medium was then suspended and centrifuged for 3 minutes at 1500 rpm to retrieve cells. DMEM (Nacalai Tesque, 08456-36)+10% FBS (Biowest, S1820-500)+1% P/S (Nacalai Tesque, 26252-94) was used as the medium. The immortalized human corneal endothelial cells from a Fuchs' endothelial corneal dystrophy patient (iFECD) were seeded on a 12-well plate at a ratio of 8.0×10^4 cells per well and cultured for 24 hours at 37° C. (5% CO2). DMEM+10% FBS+1% P/S was used as the medium. After 24 hours, the medium was exchanged and cultured again for 24 hours. DMEM+2% FBS+1% P/S was used as the medium. After 24 hours, the medium was removed. 10 ng/ml of Transforming Growth Factor-132 Human recombinant (WAKO, 200-19911) was added, and the medium was cultured for 24 hours. DMEM+2% FBS+1% P/S was used as the medium. After 24 hours, the cell morphology and apoptosis were observed under a phase contrast microscope. After […] were seeded on a 12-well plate and cultured for 24 hours, the medium was removed. SB431542 (WAKO, 192-16541) and EW-7197 (Selleck Chemicals, 57530) were added so that the final concentration would each be 0.1, 0.3, 1, 3, or 10 μM, and the medium was cultured for 24 hours. DMEM+2% FBS+1% P/S was used as the medium. After 24 hours, the medium was removed. 10 ng/ml of Transforming Growth Factor-132 Human recombinant (WAKO, 200-19911) as well as SB431542 and EW-7197 were added so that the final concentration would each be 0.1, 0.3, 1, 3, or 10 μM, and the medium was cultured for 24 hours. DMEM+2% FBS+1% P/S was used as the medium. After 24 hours, the cell morphology and apoptosis were observed under a phase contrast microscope. After […] were seeded on a 12-well plate at a ratio of 7.0×10^4 cells and cultured for 24 hours, the medium was removed. EW-7197 (Selleck Chemicals, 57530) was added so that the final concentration would be 0.001, 0.003, 0.01, 0.03, 0.1, 0.3, 1, 3, 10, or 30 μM, and the medium was cultured for 24 hours. DMEM+2% FBS+1% P/S was used as the medium. After 24 hours, the medium was removed. 10 ng/ml of Transforming Growth Factor-132 Human recombinant (WAKO, 200-19911) and EW-7197 were added so that the final concentration would be 0.001, 0.003, 0.01, 0.03, 0.1, 0.3, 1, 3, 10, or 30 μM, and the medium was cultured for 24 hours. DMEM+2% FBS+1% P/S was used as the medium. After 24 hours, the cell morphology and apoptosis were observed under a phase contrast microscope.

Another data set relates to iFECD. In words: Cell survival rate (Cell Titer-Glo Luminescent Cell Viability Assay). The conditions noted are these: iFECD; all concentrations of 0.01, 0.1, 1, and 10 μM; 48 hours. Type of data set: cell-based, human. As to the method: were seeded on a 96-well plate at a ratio of 3×10^3 cells per well, and cultured until reaching confluence at 37° C. (5% CO2). DMEM+10% FBS+1% P/S was used as the medium. After 24 hours, the medium was removed. SB431542 (WAKO, 192-16541) and EW-7197 (Selleck Chemicals, 57530) were added so that the final concentration would each be 0.01, 0.1, 1, or 10 μM, and the medium was cultured for 48 hours. DMEM+2% FBS+1% P/S was used as the medium. After 24 hours, the cell morphology was observed under a phase contrast microscope. After observation, the cell survival rate was analyzed using Cell Titer-Glo Luminescent Cell Viability Assay by the following procedures. The medium was discarded so that the amount would be 50 μl per well, and Cell Titer-Glo Luminescent Cell Viability Assay solution (Promega, G7572) was added at 50 μl/well so that the ratio to the medium would be 1:1. The process was hereinafter conducted without exposure to light. The mixture was mixed thoroughly using a shaker for 2 minutes at about 120 min^-1, and incubated for 10 minutes. After the incubation, 80 μl was transferred to an Assay plate (Corning, 3912, Assay plate 96 well, white polystyrene), and absorbance was measured using a GloMax-Multi Detection System (Promega, E7051).
On the technique in general: In ATP-based viability assays light output follows the ATP content of the culture.

A further data set has as its system Caspase 3/7. Briefly: Caspase 3/7 activity (Caspase-Glo 3/7 Assay) in TGF-β-stimulated iFECD. It is filed as cell-based, human. The settings on record: in the order of 0.01, 0.1, 1, and 10 μM. The protocol:
were seeded on a 96-well plate at a ratio of 3×10^3 cells per well, and cultured until reaching confluence at 37° C. (5% CO2). DMEM+10% FBS+1% P/S was used as the medium. After 24 hours, the medium was removed. SB431542 (WAKO, 192-16541) and EW-7197 (Selleck Chemicals, 57530) were added so that the final concentration would each be 0.01, 0.1, 1, or 10 μM, and the medium was cultured for 24 hours. DMEM+2% FBS+1% P/S was used as the medium. After 24 hours, the medium was removed. 10 ng/ml of Transforming Growth Factor-132 Human recombinant (WAKO, 200-19911) and SB431542 were added so that the final concentration would be 0.01, 0.1, 1, and 10 μM, and the medium was cultured for 24 hours. DMEM+2% FBS+1% P/S was used as the medium. After 24 hours, the cell morphology was observed under a phase contrast microscope. After observation, Caspase 3/7 activity was measured using Caspase-Glo 3/7 Assay by the following procedures. The medium was discarded so that the amount would be 50 μl per well, and a Caspase Glo 3/7 Assay Reagent (mixture of Caspase-Glo 3/7 Assay Buffer and Caspase-Glo 3/7 Assay Substrate) (Promega, G8091) solution was added at 50 μl/well so that the ratio thereof to the medium would be 1:1. The process was hereinafter conducted without exposure to light. The mixture was mixed thoroughly using a shaker for 2 minutes at about 120 min^-1, and incubated for 40 minutes at room temperature. After the incubation, 80 μl was transferred to an Assay plate (Corning, 3912, Assay plate 96 well, white polystyrene), and absorbance was measured using a GloMax-Multi Detection System (Promega, E7051). A caspase inhibitor, i.e., 10μ MZ-VD-FMK (WAKO, 262-02061) was used as a positive control.

`NC(=O)c1ccc(-c2nc(-c3ccc4c(c3)OCO4)c(-c3ccccn3)[nH]2)cc1` [SB431542, reference compound]: the “effect of suppressing corneal endothelial cell disorder” value in data set [1] (compound at 3 μM and 10 μM) is “suppressed”; in data set [1] (compound at 10 μM), “effectively suppressed”. Besides, in data set [1] (summary statement, at sub-μM (1 μM to 0.1 μM)), the “effect of suppressing corneal endothelial disorders” value is recorded as “not observed”. For the same compound, the “cell survival rate compared to a control group” value in the data set on iFECD is listed as “a significant difference was not found”. The “activity of Caspase 3/7” value in the data set on Caspase 3/7 was “reduced”.
